One assay has as its target T1, CCK-B receptor (Rattus norvegicus, UniProt P30553).
T1 construct: the whole brain was immediately excised from each of the cut heads and homogenized; from tissue; host or cells: SD rat whole brain, membrane preparation
The assay can be described thus: Binding action upon CCK-B receptor ([125I]BH.CCK-8, rat whole brain membrane). The arrangement: species or system SD rat. The note with it: [125I]BH.CCK-8, 25° C., 120 min, pH 6.5. As for the experimental part: Measurement of the binding action upon CCK-B receptor:
About 100 heads of SD rats were decapitated without anesthesia, the whole brain was immediately excised from each of the cut heads and homogenized in 10-fold volume of 0.32M aqueous solution of sucrose by the use of a Teflon-coated homogenizer, the homogenate thus obtained was centrifuged for ten minutes at 900 g by the use of a cooled centrifuge, and the supernatant was further centrifuged for 15 minutes at 11500 g. The precipitate thus obtained was dispersed in 50 mM Tris-HCl buffer (pH 7.4) containing 0.08% Triton X-100, this suspension was allowed to stand for 30 minutes and again centrifuged for 15 minutes at 11500 g, the precipitate thus obtained was washed twice with 5 mM Tris-HCl buffer and twice with 50 mM Tris-HCl buffer in that order through centrifugal separation, the washed precipitate was suspended in 50 mM Tris-HCl buffer, and the suspension thus obtained was freeze-stored at -80° C., thus giving membrane preparation.
The membrane preparation was molten at room temperature, diluted with 10 mM HEPES buffer (containing 130 mM NaCl, 5 mM MgCl2, 1 mM EGTA and 0.25 mg/ml bacitracin; pH 6.5) and incubated at 25° C. for 120 minutes in the presence of [^125 I]BH.cndot.CCK-8, and B/F separation was performed by suction filtration. Nonspecific binding was determined in the presence of 1 μM CCK-8. The amount of labelled ligand bound to the receptor was measured by the use of a […]; Ki (CCK-B) values were determined from the binding inhibition curve of the test sample, with the maximum amount of labelled ligand bound to the receptor being set as 100%.

In assay [1] the test system is gastric-acid secretion caused by the stimulus of pentagastrin. The assay can be described thus: Depression of gastric-acid secretion caused by the stimulus of pentagastrin. Type of assay: in vivo. The note with it: Rattus norvegicus, iv; SD rats, urethane anesthetized, i.v. test drug, pentagastrin 15 μg/kg/hr i.v. The source says:
Measurement of the action of depressing the gastric-acid secretion caused by the stimulus of pentagastrin:
A cannula was inserted into the trachea of a rat anesthetized with urethane (intraperitoneally administered in an amount of 1.25 g/kg), its abdominal wall was incised to expose the gastric and duodenal portions, and a polyethylene cannula was set at the anterior stomach after ligation of the cardia. The duodenum was then subjected to slight section, a polyethylene cannula was inserted from the incised portion toward the stomach, and the pylorus was ligated to fix the cannula.
Physiological saline (with pH adjusted to 7.0) was flown from the anterior stomach toward the pylorus at a speed of 3 ml/min, and the gastric-acid secretion was measured by continuous titration of the flown saline by the use of a pH-stat (AUT-201; product of Toa Electronics, Ltd.). The continuous titration was carried out by using 25 mM caustic soda solution until the pH reached 7.0, and the result was expressed as the amount of gastric acid secreted for every ten minutes (μEq /10 min.). Pentagastrin was intravenously administered at a rate of 15 μg/kg/hr. The secretion of gastric acid increased upon administration of pentagastrin, reaching the maximum level after 60 minutes and stably maintaining this level after that. […]

In assay [2] the test system is CCK-A receptor vs CCK-B receptor. The assay can be described thus: Selectivity for CCK-B receptor by comparison with binding to CCK-A receptor (rat pancreas membrane, [3H]L-364,718). The arrangement: species or system SD rat. The note with it: rat pancreas (CCK-A) vs rat brain (CCK-B). The procedure: Measurement of selectivity for CCK-B receptor by comparison with the binding to CCK-A receptor in rats:
The pancreas of an SD rat was homogenized in 20-fold volume of 50 mM Tris-HCl buffer (pH 7.7) by the use of a Polytrone-type homogenizer, the homogenate was twice centrifuged for 10 minutes at 50000 g by the use of an ultracentrifuge, the precipitate thus obtained was suspended in 40-fold volume of 50 mM Tris-HCl buffer (containing 0.2% BSA, 5 mM MgCl2, 0.1 mg/ml bacitracin and 5 mM DTT; pH 7.7), and the suspension was freeze-stored at -80° C., thus giving membrane preparation.
The membrane preparation was then molten at room temperature, diluted ten times with the buffer and incubated at 37° C. for 30 minutes in the presence of [^3 H]L-364, 718, and B/F separation was performed by suction filtration. Nonspecific binding was determined in the presence of 1 μM L-364, 718. The amount of labelled ligand bound to the receptor was measured by the use of a liquid scintillation counter; Ki (CCK-A) values were determined from the binding inhibition curve of the test sample, with the maximum amount of labelled ligand bound to the receptor being set as 100%.
The Ki (CCK-A)/Ki (CCK-B) value of the present compound can be calculated from the above test. The higher the value of Ki (CCK-A)/Ki (CCK-B), the higher will be the selectivity to the CCK-B receptor.

For the next assay, the system named is benzodiazepine receptor. Briefly: Binding to the benzodiazepine receptor. As to conditions: even at 10 μM.

T1 sequence (P30553 whole entry): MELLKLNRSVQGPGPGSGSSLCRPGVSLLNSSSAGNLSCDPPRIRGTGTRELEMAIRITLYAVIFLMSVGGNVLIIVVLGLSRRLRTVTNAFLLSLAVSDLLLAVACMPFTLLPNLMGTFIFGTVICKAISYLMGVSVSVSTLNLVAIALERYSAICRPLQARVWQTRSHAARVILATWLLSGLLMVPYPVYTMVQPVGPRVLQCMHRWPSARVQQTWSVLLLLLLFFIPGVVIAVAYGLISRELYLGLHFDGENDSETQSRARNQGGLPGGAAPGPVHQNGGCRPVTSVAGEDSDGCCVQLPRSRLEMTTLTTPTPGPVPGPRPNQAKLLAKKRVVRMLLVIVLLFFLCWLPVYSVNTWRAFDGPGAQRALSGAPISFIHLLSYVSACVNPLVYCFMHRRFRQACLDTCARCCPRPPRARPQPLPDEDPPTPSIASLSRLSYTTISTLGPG

By Ki is commonly meant a dissociation constant, usually derived from enzyme kinetics or from competition with a known ligand. Read a low Ki as higher affinity. A word on the ED50: it is the dose that gives a 50% effect, or the effect in half of the subjects. As to `Cc1cccc(NC(=O)NC2N=C(c3ccccc3)c3ccccc3N(CC(=O)c3ccccc3C)C2=O)c1` (stereo not shown) [Example 2, 1-[2,3-dihydro-1-(2'-methylphenacyl)-2-oxo-5-phenyl-1H-1,4-benzodiazepin-3-yl]-3-(3-tolyl)urea], on CCK-B receptor, the Ki was 0.15 nM. The ED50 in assay [1] amounted to 0.03 µmol/kg. Besides, the “Ki (CCK-A)/Ki (CCK-B), selectivity for the CCK-B receptor” value in assay [2] is 1733 fold.
On CCK-B receptor, `Cc1cccc(NC(=O)NC2N=C(c3ccccc3)c3ccccc3N(CC(=O)c3sccc3C)C2=O)c1` (stereo not shown) [Example 13, 1-[2,3-Dihydro-1-(3-methyl-2-thenoyl)methyl-2-oxo-5-phenyl-1H-1,4-benzodiazepin-3-yl]-3-(3-tolyl)urea] yielded a Ki of 0.16 nM.
For the molecule `Cc1ccc(C(=O)CN2C(=O)C(NC(=O)Nc3cccc(C)c3)N=C(c3ccccc3)c3ccccc32)cc1` (stereo not shown) [Example 7, 1-[2,3-Dihydro-1-(4'-methylphenacyl)-2-oxo-5-phenyl-1H-1,4-benzodiazepin-3-yl]-3-(3-tolyl)urea], the affinity at CCK-B receptor, expressed as Ki, was 0.22 nM. Also, the “Ki (CCK-A)/Ki (CCK-B), selectivity for the CCK-B receptor” value in assay [2] was 864 fold.
`Cc1cccc(NC(=O)N[C@@H]2N=C(c3ccccc3)c3ccccc3N(CC(=O)c3ccccc3C)C2=O)c1` [Example 16, (R)-1-[2,3-dihydro-1-(2'-methylphenacyl)-2-oxo-5-phenyl-1H-1,4-benzodiazepin-3-yl]-3-(3-tolyl)urea]: in the assay on benzodiazepine receptor, the “binding action to the benzodiazepine receptor (in words)” value is reported as “no binding action at all”.

(Values after patent publication US5541182A, “Benzodiazepine aryl urea derivatives” (Yamanouchi Pharmaceutical Co., Ltd., priority 1990, dated 1996).)
